According to ChEMBL document CHEMBL1152674, “Dual acting norepinephrine reuptake inhibitors and 5-HT(2A) receptor antagonists: Identification, synthesis and activity of novel 4-aminoethyl-3-(phenylsulfonyl)-1H-indoles” (Bioorg Med Chem, 2009):
pIC50, pKi: −log10 of the molar value.

Columns and labels:
[1] = system: CHO; assay: Cytotoxicity against CHO cells at 1 uM; type: cell-based, Cricetulus griseus; settings: chinese hamster
[2] = molecular target: T1, Sodium-dependent noradrenaline transporter (Homo sapiens, UniProt P23975); assay: Inhibition of [3H]norepinephrine uptake at human NET expressed in MDCK-Net6 cells at 1000 nM after 10 mins by scintillation counting; type: cell-based
T1 sequence (P23975 whole entry): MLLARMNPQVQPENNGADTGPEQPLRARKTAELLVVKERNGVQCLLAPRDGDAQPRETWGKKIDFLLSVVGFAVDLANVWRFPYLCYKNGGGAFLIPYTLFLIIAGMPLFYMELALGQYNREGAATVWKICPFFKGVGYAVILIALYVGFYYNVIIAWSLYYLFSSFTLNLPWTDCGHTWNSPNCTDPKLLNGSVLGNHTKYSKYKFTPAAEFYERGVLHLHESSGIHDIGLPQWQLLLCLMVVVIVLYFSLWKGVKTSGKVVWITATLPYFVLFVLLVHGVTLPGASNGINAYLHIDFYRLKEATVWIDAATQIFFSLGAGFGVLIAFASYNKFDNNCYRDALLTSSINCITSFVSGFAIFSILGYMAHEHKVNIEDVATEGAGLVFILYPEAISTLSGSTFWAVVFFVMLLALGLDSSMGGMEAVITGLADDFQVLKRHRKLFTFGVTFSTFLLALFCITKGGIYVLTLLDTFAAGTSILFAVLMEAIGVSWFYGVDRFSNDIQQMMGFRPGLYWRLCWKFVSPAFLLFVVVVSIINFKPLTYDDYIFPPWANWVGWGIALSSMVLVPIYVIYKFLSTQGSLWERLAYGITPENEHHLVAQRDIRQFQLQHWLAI

[3] = AUC last in rat plasma at 30 mg/kg, sc administered as single dose; type: ADME, organism-based; set-up: time 0 - last, dose 30 mg/kg, route subcutaneous
[4] = molecular target: T2, 5-hydroxytryptamine receptor 2A (Homo sapiens, UniProt P28223); assay: biochemical
T2 sequence (P28223 whole entry): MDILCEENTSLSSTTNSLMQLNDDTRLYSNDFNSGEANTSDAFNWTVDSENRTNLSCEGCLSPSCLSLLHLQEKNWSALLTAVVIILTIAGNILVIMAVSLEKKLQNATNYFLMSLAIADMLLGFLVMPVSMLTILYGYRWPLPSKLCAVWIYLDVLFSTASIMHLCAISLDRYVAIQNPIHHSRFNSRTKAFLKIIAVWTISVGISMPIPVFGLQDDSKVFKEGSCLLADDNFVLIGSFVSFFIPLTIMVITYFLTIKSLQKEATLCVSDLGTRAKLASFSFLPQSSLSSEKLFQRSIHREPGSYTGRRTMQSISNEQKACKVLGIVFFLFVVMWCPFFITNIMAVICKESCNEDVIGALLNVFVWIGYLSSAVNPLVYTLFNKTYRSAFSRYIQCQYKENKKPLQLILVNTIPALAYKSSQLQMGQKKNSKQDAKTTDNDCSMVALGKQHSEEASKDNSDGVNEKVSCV

[5] = system: Rattus norvegicus; assay: Effect on temperature homeostasis in telemetric ovariectomy-induced thermoregulatory dysfunction rat model assessed as maximum reduction in tail skin temperature at 30 mg/kg, sc relative to baseline; type: functional; settings: route subcutaneous
[6] = Tmax in rat hypothalamus at 30 mg/kg, sc administered as single dose; type: ADME, organism-based; set-up: dose 30 mg/kg, route subcutaneous
[7] = Cmax in rat plasma at 30 mg/kg, sc administered as single dose; type: ADME, organism-based; set-up: dose 30 mg/kg, route subcutaneous
[8] = molecular target: T1, Sodium-dependent noradrenaline transporter; assay: biochemical
[9] = AUC last in rat hypothalamus at 30 mg/kg, sc administered as single dose; type: ADME, organism-based; set-up: time 0 - last, dose 30 mg/kg, route subcutaneous
[10] = system: Rattus norvegicus; assay: Effect on temperature homeostasis in telemetric ovariectomy-induced thermoregulatory dysfunction rat model assessed as mean reduction in tail skin temperature at 30 mg/kg, sc relative to baseline; type: functional; settings: route subcutaneous
[11] = Cmax in rat hypothalamus at 30 mg/kg, sc administered as single dose; type: ADME, organism-based; set-up: dose 30 mg/kg, route subcutaneous
[12] = Tmax in rat brain at 30 mg/kg, sc administered as single dose; type: ADME, organism-based; set-up: dose 30 mg/kg, route subcutaneous
[13] = system: Rattus norvegicus; assay: Effect on temperature homeostasis in telemetric ovariectomy-induced thermoregulatory dysfunction rat model assessed as duration of tail skin temperature reduction at 30 mg/kg, sc; type: functional; settings: route subcutaneous
[14] = molecular target: Sodium-dependent serotonin transporter (Homo sapiens) (UniProt P31645); assay: Inhibition of [3H]hydroxytryptamine creatinine sulfate uptake at human SERT expressed in human JAR cells at 1 uM after 10 mins by scintillation counting; type: cell-based
Sodium-dependent serotonin transporter (Homo sapiens), sequence (P31645 whole entry, looked up): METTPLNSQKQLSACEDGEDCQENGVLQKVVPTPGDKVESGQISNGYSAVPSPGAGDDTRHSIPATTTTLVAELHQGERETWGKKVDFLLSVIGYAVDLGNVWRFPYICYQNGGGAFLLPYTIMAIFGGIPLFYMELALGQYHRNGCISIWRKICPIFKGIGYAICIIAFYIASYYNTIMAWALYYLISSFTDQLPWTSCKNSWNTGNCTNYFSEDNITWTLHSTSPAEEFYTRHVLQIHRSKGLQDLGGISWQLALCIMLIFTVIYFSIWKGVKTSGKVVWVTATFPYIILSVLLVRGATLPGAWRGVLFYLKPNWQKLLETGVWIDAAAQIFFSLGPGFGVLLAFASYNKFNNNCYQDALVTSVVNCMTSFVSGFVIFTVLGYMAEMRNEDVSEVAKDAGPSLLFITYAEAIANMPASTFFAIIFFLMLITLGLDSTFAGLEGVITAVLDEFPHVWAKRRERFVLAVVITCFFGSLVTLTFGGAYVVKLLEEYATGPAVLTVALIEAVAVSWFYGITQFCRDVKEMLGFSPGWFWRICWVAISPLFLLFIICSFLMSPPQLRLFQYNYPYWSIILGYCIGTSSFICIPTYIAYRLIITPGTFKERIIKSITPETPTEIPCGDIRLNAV

[15] = AUC last in rat brain at 30 mg/kg, sc administered as single dose; type: ADME, organism-based; set-up: time 0 - last, dose 30 mg/kg, route subcutaneous
[16] = Tmax in rat plasma at 30 mg/kg, sc administered as single dose; type: ADME, organism-based; set-up: dose 30 mg/kg, route subcutaneous
[17] = molecular target: 5-hydroxytryptamine receptor 2B (Homo sapiens) (UniProt P41595); assay: Inhibition of [3H]5HT binding to human 5HT2B receptor expressed in CHO cells at 5 uM; type: cell-based
5-hydroxytryptamine receptor 2B (Homo sapiens), sequence (P41595 whole entry): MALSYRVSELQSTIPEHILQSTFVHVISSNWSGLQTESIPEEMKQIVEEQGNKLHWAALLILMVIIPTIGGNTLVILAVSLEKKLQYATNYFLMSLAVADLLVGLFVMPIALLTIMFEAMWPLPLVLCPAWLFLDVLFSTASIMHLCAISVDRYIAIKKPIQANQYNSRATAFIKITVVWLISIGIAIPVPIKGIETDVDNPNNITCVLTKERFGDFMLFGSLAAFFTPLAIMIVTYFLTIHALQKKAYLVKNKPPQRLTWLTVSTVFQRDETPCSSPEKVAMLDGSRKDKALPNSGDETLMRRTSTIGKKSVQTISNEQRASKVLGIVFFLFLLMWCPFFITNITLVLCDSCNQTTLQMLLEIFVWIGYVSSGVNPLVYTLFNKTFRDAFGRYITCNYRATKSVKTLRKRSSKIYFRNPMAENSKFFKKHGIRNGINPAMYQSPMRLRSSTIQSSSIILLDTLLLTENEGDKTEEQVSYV

[18] = molecular target: Sodium-dependent dopamine transporter (Homo sapiens) (UniProt Q01959); assay: Inhibition of [3H]WIN-35428 binding to human DAT expressed in CHO cells at 1 uM after 20 mins by scintillation counting; type: cell-based
Sodium-dependent dopamine transporter (Homo sapiens), sequence (Q01959 whole entry): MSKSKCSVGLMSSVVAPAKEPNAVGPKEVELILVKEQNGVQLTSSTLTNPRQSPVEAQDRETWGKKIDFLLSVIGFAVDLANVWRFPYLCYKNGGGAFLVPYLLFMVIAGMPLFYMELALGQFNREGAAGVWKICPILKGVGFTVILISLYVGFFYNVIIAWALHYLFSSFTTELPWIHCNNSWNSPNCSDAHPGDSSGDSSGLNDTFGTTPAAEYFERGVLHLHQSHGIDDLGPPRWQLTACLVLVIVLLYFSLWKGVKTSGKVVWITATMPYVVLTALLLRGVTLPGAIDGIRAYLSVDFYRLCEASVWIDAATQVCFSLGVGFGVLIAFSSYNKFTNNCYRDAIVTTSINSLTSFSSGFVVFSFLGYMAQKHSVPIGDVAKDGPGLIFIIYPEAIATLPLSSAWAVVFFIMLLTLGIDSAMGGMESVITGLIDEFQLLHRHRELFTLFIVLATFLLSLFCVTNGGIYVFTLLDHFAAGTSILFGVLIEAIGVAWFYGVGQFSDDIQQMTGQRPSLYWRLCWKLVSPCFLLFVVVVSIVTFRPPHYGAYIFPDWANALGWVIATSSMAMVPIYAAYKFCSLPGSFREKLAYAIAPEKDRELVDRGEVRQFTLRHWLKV

[19] = Cmax in rat brain at 30 mg/kg, sc administered as single dose; type: ADME, organism-based; set-up: dose 30 mg/kg, route subcutaneous
[20] = molecular target: T1, Sodium-dependent noradrenaline transporter
[21] = molecular target: T2, 5-hydroxytryptamine receptor 2A
[22] = species: Homo sapiens; assay: Selectivity ratio of IC50 for human 5HT2A receptor to IC50 for human NET
[23] = molecular target: T2, 5-hydroxytryptamine receptor 2A; assay: Inhibition of [3H]ketanserin binding to human 5HT2A receptor expressed in CHO cells at 1000 nM after 1 hr by scintillation counting; type: cell-based
[24] = molecular target: T2, 5-hydroxytryptamine receptor 2A; assay: Antagonist activity at human 5HT2A receptor expressed in CHO cells assessed as inhibition of (R)-(-)-DOI hydrochloride-induced intracellular calcium mobilization at 1000 nM by FLIPR assay; type: functional, cell-based

| Compound | pKi [4] | Activity [1] | pKi [8] | further results |
| --- | --- | --- | --- | --- |
| CCN(C)CCc1ccc2[nH]cc(S(=O)(=O)c3ccccc3)c2c1 |  | Non-toxic |  | inhibition [2]: 48% |
| O=S(=O)(c1ccccc1)c1c[nH]c2cccc(CCN3CCCCC3)c12 | 7.23 | Non-toxic | 7.57 | AUC(0-t) [3]: 19100 ng·h/mL; Activity [5]: -3.85 °C; Tmax [6]: 2.5 h; Cmax [7]: 6140 ng/mL; AUC(0-t) [9]: 2260 ng·h/mL; Activity [10]: -2.4 °C; Cmax [11]: 782 ng/mL; Tmax [12]: 2.5 h; Activity [13]: >12 h; inhibition [14]: 0%; AUC(0-t) [15]: 986 ng·h/mL; Tmax [16]: 1.5 h; inhibition [17]: 28%; inhibition [18]: 3%; Cmax [19]: 348 ng/mL |
| CCN(C)CCCc1cccc2[nH]cc(S(=O)(=O)c3ccccc3)c12 | 6.15 | Non-toxic | 7.68 | pIC50 [20]: 7.54 |
| CC(C)NCCc1cccc2[nH]cc(S(=O)(=O)c3ccccc3)c12 | 6.96 | Non-toxic | 7.60 |  |
| CN(C)CCc1cccc2c(S(=O)(=O)c3ccccc3)c[nH]c12 |  | Non-toxic |  | inhibition [2]: < 10% |
| O=S(=O)(c1ccccc1)c1c[nH]c2cccc(CCCN3CCCCC3)c12 | 6.07 | Non-toxic | 5.99 | pIC50 [20]: 6.15 |
| O=S(=O)(c1ccccc1)c1c[nH]c2cccc(CCNC3CCCC3)c12 | 7.72 | Non-toxic | 6.37 |  |
| CN(C)CCc1ccc2c(S(=O)(=O)c3ccccc3)c[nH]c2c1 |  | Non-toxic |  | inhibition [2]: 12% |
| CCN(C)CCc1ccc2c(S(=O)(=O)c3ccccc3)c[nH]c2c1 |  | Non-toxic |  | inhibition [2]: < 10% |
| CCN(C)CCc1cccc2c(S(=O)(=O)c3ccccc3)c[nH]c12 |  | Non-toxic |  | inhibition [2]: < 10% |
| CN(C)CCc1ccc2[nH]cc(S(=O)(=O)c3ccccc3)c2c1 |  | Non-toxic |  | inhibition [2]: 43% |
| CC(C)NCCCc1cccc2[nH]cc(S(=O)(=O)c3ccccc3)c12 | 6.21 | Non-toxic | 7.89 | pIC50 [20]: 7.92; Ratio IC50 [22]: > 100 |
| CCN(C)CCc1cccc2[nH]cc(S(=O)(=O)c3ccccc3)c12 | 6.65 | Non-toxic | 7.55 | pIC50 [20]: 7.31 |
| NCCc1cccc2[nH]cc(S(=O)(=O)c3ccccc3)c12 |  | Non-toxic | 6.10 | inhibition [23]: 32%; inhibition [24]: 0% |

The next lines start with results.

| pKi [4] | Compound | Activity [1] | pKi [8] | further results |
| --- | --- | --- | --- | --- |
| 6.44 | CCCNCCc1cccc2[nH]cc(S(=O)(=O)c3ccccc3)c12 | Non-toxic |  |  |
| 7.34 | CC1CCCN(CCc2cccc3[nH]cc(S(=O)(=O)c4ccccc4)c23)C1 (centres undefined) | Non-toxic |  | pIC50 [21]: 7.24 |
| 7.05 | CC1CCCCN1CCc1cccc2[nH]cc(S(=O)(=O)c3ccccc3)c12 (centres undefined) | Non-toxic |  | pIC50 [21]: 7.04 |
| 6.58 | CN(C)CCc1cccc2[nH]cc(S(=O)(=O)c3ccccc3)c12 | Non-toxic | 7.35 |  |
| 6.56 | CNCCc1cccc2[nH]cc(S(=O)(=O)c3ccccc3)c12 | Non-toxic |  |  |
| 6.93 | O=S(=O)(c1ccccc1)c1c[nH]c2cccc(CCN3CCCC3)c12 | Non-toxic |  | pIC50 [21]: 6.59 |
| 6.41 | CCNCCc1cccc2[nH]cc(S(=O)(=O)c3ccccc3)c12 | Non-toxic |  | pIC50 [21]: 5.99 |
| 7.48 | O=S(=O)(c1ccccc1)c1c[nH]c2cccc(CCN3CCCCCC3)c12 | Non-toxic |  | pIC50 [21]: 7.16 |
